# Results: US6693216B2, “Calcium double salts” (Nutrinova Nutrition Specialties & Food Ingredients GmbH, priority 2000, dated 2004)
# Where two headings read alike, the source gives them in different places.
# Columns and labels:
# Settings in all cases: Part II, 1 g/l in apple juice pH 4.5, 25° C.
# [1] = system: Lactic acid bacteria
# [2] = system: Yeasts
# [3] = system: Thermophilic bacilli
# [4] = system: Acetic acid bacteria
# [5] = system: Clostridia
# [6] = system: Bacilli
# [7] = system: Molds I
# [8] = system: Gram-negative bacteria
# [9] = system: Gram-positive bacteria
# [10] = system: Molds II
# [11] = 1 day after inoculation (2.7 × 10^4)
# [12] = 3 days after inoculation (2.7 × 10^4)
# [13] = 7 days after inoculation (2.7 × 10^4)
# [14] = 14 days after inoculation (2.7 × 10^4)
substance,measurement,setting,value
Calcium Sorbate,"Number of surviving microorganisms per g of contaminated sample, Lactic acid bacteria",[1]; [11],3.4 × 10^3 CFU/g
same,"Number of surviving microorganisms per g of contaminated sample, Lactic acid bacteria",[1]; [12],2.0 × 10^3 CFU/g
same,"Number of surviving microorganisms per g of contaminated sample, Lactic acid bacteria",[1]; [13],<100 CFU/g
same,"Number of surviving microorganisms per g of contaminated sample, Lactic acid bacteria",[1]; [14],<10 CFU/g
same,"Number of surviving microorganisms per g of contaminated sample, Yeasts",[2]; 1 day after inoculation (2.6 × 10^4),2.3 × 10^4 CFU/g
same,"Number of surviving microorganisms per g of contaminated sample, Yeasts",[2]; 3 days after inoculation (2.6 × 10^4),1.0 × 10^4 CFU/g
same,"Number of surviving microorganisms per g of contaminated sample, Yeasts",[2]; 7 days after inoculation (2.6 × 10^4),<100 CFU/g
same,"Number of surviving microorganisms per g of contaminated sample, Yeasts",[2]; 14 days after inoculation (2.6 × 10^4),<10 CFU/g
same,"Number of surviving microorganisms per g of contaminated sample, Thermophilic bacilli",[3]; 1 day after inoculation (1.3 × 10^4),1.4 × 10^3 CFU/g
same,"Number of surviving microorganisms per g of contaminated sample, Thermophilic bacilli",[3]; 3 days after inoculation (1.3 × 10^4),5.0 × 10^2 CFU/g
same,"Number of surviving microorganisms per g of contaminated sample, Thermophilic bacilli",[3]; 7 days after inoculation (1.3 × 10^4),<10 CFU/g
same,"Number of surviving microorganisms per g of contaminated sample, Thermophilic bacilli",[3]; 14 days after inoculation (1.3 × 10^4),<10 CFU/g
same,"Number of surviving microorganisms per g of contaminated sample, Acetic acid bacteria",[4]; 1 day after inoculation (2.8 × 10^4),1.5 × 10^4 CFU/g
same,"Number of surviving microorganisms per g of contaminated sample, Acetic acid bacteria",[4]; 3 days after inoculation (2.8 × 10^4),1.4 × 10^4 CFU/g
same,"Number of surviving microorganisms per g of contaminated sample, Acetic acid bacteria",[4]; 7 days after inoculation (2.8 × 10^4),2.0 × 10^4 CFU/g
same,"Number of surviving microorganisms per g of contaminated sample, Acetic acid bacteria",[4]; 14 days after inoculation (2.8 × 10^4),1.3 × 10^5 CFU/g
same,"Number of surviving microorganisms per g of contaminated sample, Clostridia",[5]; 1 day after inoculation (2.9 × 10^4),2.2 × 10^3 CFU/g
same,"Number of surviving microorganisms per g of contaminated sample, Clostridia",[5]; 3 days after inoculation (2.9 × 10^4),<100 CFU/g
same,"Number of surviving microorganisms per g of contaminated sample, Clostridia",[5]; 7 days after inoculation (2.9 × 10^4),<10 CFU/g
same,"Number of surviving microorganisms per g of contaminated sample, Clostridia",[5]; 14 days after inoculation (2.9 × 10^4),<10 CFU/g
same,"Number of surviving microorganisms per g of contaminated sample, Bacilli",[6]; 1 day after inoculation (3.3 × 10^4),2.8 × 10^3 CFU/g
same,"Number of surviving microorganisms per g of contaminated sample, Bacilli",[6]; 3 days after inoculation (3.3 × 10^4),1.8 × 10^3 CFU/g
same,"Number of surviving microorganisms per g of contaminated sample, Bacilli",[6]; 7 days after inoculation (3.3 × 10^4),1.3 × 10^3 CFU/g
same,"Number of surviving microorganisms per g of contaminated sample, Bacilli",[6]; 14 days after inoculation (3.3 × 10^4),1.2 × 10^3 CFU/g
same,"Number of surviving microorganisms per g of contaminated sample, Molds I",[7]; 1 day after inoculation (2.2 × 10^4),3.9 × 10^3 CFU/g
same,"Number of surviving microorganisms per g of contaminated sample, Molds I",[7]; 3 days after inoculation (2.2 × 10^4),<100 CFU/g
same,"Number of surviving microorganisms per g of contaminated sample, Molds I",[7]; 7 days after inoculation (2.2 × 10^4),<10 CFU/g
same,"Number of surviving microorganisms per g of contaminated sample, Molds I",[7]; 14 days after inoculation (2.2 × 10^4),<10 CFU/g
same,"Number of surviving microorganisms per g of contaminated sample, Gram-negative bacteria",[8]; [11],1.7 × 10^4 CFU/g
same,"Number of surviving microorganisms per g of contaminated sample, Gram-negative bacteria",[8]; [12],1.0 × 10^4 CFU/g
same,"Number of surviving microorganisms per g of contaminated sample, Gram-negative bacteria",[8]; [13],1.9 × 10^3 CFU/g
same,"Number of surviving microorganisms per g of contaminated sample, Gram-negative bacteria",[8]; [14],2.7 × 10^3 CFU/g
same,"Number of surviving microorganisms per g of contaminated sample, Gram-positive bacteria",[9]; 1 day after inoculation (2.1 × 10^4),2.1 × 10^4 CFU/g
same,"Number of surviving microorganisms per g of contaminated sample, Gram-positive bacteria",[9]; 3 days after inoculation (2.1 × 10^4),6.4 × 10^3 CFU/g
same,"Number of surviving microorganisms per g of contaminated sample, Gram-positive bacteria",[9]; 7 days after inoculation (2.1 × 10^4),<10 CFU/g
same,"Number of surviving microorganisms per g of contaminated sample, Gram-positive bacteria",[9]; 14 days after inoculation (2.1 × 10^4),<10 CFU/g
same,"Number of surviving microorganisms per g of contaminated sample, Molds II",[10]; 1 day after inoculation (2.5 × 10^4),6.5 × 10^3 CFU/g
same,"Number of surviving microorganisms per g of contaminated sample, Molds II",[10]; 3 days after inoculation (2.5 × 10^4),<100 CFU/g
same,"Number of surviving microorganisms per g of contaminated sample, Molds II",[10]; 7 days after inoculation (2.5 × 10^4),<10 CFU/g
same,"Number of surviving microorganisms per g of contaminated sample, Molds II",[10]; 14 days after inoculation (2.5 × 10^4),<10 CFU/g
